Results reported in patent US9949945B2, “3′ equatorial-fluorine-substituted neuraminidase inhibitor compounds, compositions and methods for the use thereof as anti-virals” (THE UNIVERSITY OF BRITISH COLUMBIA, priority 2012, dated 2018).
Where two headings read alike, the source gives them in different places.

Experiments:
Assay type in all cases: biochemical
[1] = molecular target: A/Fukui H3N2 E119V (oseltamivir-resistant) NA (Influenza A virus, UniProt A0A0F6NYK2, E119V); conditions: read-out: IC50 in the enzyme inhibition assay, A/Fukui H3N2 E119V
[2] = molecular target: B/Florida E119D (B/Florida/4/2006 mutant 1 E117D) NA (Influenza B virus, UniProt J7JZT1, E117D)
[3] = molecular target: Sol Isl sH1N1 E119A (A/Solomon Islands/3/2006 mutant) NA (Influenza A virus, UniProt B4URD9, E119A)
[4] = molecular target: sH1N1/01 H275Y (A/Mississippi/3/01 oseltamivir-resistant) NA (Influenza A virus, UniProt Q3M0T6, H275Y)

| Substance | IC50 [1] [µM] | IC50 [2] [µM] | IC50 [3] [µM] | IC50 ([4]; read-out: IC50 in the enzyme inhibition assay, A/Mississippi H1N1 H275Y) [µM] | IC50 ([4]; read-out: IC50 sH1N/01 H275Y) [µM] |
| --- | --- | --- | --- | --- | --- |
| Oseltamivir | 0.26 | 1.21 | – | – | – |
| Zanamivir | – | – | > 10 | 0.0022 | 0.0022 |
